pIC50: −log10 of the molar value.
Target: T1, P2X7 receptor (Homo sapiens, UniProt Q99572)
T1 construct: host or cells: SH-SY5Y
T1 sequence (Q99572 1-595): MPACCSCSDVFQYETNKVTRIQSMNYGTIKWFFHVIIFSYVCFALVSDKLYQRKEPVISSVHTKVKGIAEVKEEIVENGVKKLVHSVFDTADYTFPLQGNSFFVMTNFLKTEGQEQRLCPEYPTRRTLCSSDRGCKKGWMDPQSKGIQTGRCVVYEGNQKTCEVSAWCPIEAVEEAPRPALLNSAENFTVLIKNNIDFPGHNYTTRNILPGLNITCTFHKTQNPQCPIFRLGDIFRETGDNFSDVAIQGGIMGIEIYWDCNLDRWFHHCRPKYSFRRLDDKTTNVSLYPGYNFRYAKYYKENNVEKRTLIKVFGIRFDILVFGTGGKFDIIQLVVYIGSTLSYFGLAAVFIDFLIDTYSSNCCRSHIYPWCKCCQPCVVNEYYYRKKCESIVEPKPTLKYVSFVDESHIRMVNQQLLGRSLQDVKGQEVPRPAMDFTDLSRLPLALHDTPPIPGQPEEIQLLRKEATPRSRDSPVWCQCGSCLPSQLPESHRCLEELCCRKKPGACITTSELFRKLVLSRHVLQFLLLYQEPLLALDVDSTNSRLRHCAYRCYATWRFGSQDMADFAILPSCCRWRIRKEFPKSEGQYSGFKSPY
Experiment: P2X7 calcium mobilization assay, high throughput, antagonist activity (Example 4A)
Format: cell-based
Settings: not given
Method in brief: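 Dye-loaded cells (100,000/well, seeded previous day) are pre-exposed to compound for an hour at room temperature. Fluorescence maxima are baseline-corrected against no-agonist wells and compared with the averaged agonist-well maximum.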

| SMILES | pIC50 |
| --- | --- |
| NCCCNCc1cn2c(C(=O)NCC34CC5CC(CC(C5)C3)C4)cccc2n1 [Compound 123, N-(adamantan-1-ylmethyl)-2-{[(3-aminopropyl)amino]methyl}imi-dazo[1,2-a]pyridine-5-carboxamide] | > 5.70 |
| C[C@@H](CO)NCc1cn2c(C(=O)NCC34CC5CC(CC(C5)C3)C4)cccc2n1 [Compound 66, N-(adamantan-1-ylmethyl)-2-({[(1S)-2-hydroxy-1-methylethyl]amino}methyl)imi-dazo[1,2-a]pyridine-5-carboxamide] | > 5.70 |

Same assay, conditions: 50% decrease in the fluorescence response of cells exposed to 80 μM 2′(3′)-O-(4-benzoyl-benzoyl)adenosine 5′-triphosphate; Example 4A; read-out: IC50

| pIC50 | SMILES |
| --- | --- |
| > 5.70 | CC1(C)[C@@H]2CC[C@@H](CNC(=O)c3cccc4nc(CC(=O)N5C[C@H]6CC5CN6)cn34)[C@H]1C2 (stereo in doubt) [Compound 558, 2-{2-[(1R,4R)-2,5-diazabicyclo[2.2.1]hept-2-yl]-2-oxoethyl}-N-{[(1R,2R,5R)-6,6-dimethylbicyclo [3.1.1]hept-2-yl]methyl}imidazo[1,2-a]pyridine-5-carboxamide] |
| > 5.70 | CC1(C)[C@@H]2CC[C@@H](CNC(=O)c3cccc4nc(CC(=O)N5CCCC(N)C5)cn34)[C@H]1C2 (stereo partly drawn) [Compound 581, 2-[2-(3-aminopiperidin-1-yl)-2-oxoethyl]-N-{[(1R,2R,5R)-6,6-dimethylbicyclo[3.1.1]hept-2-yl]methyl}imidazo[1,2-a]pyridine-5-carboxamide] |
| > 5.70 | CC1CNCCN1C(=O)Cc1cn2c(C(=O)NC[C@@H]3CC[C@@H]4C[C@H]3C4(C)C)cccc2n1 (stereo partly drawn) [Compound 556, N-{[(1R,2R,5R)-6,6-dimethylbicyclo[3.1.1]hept-2-yl]methyl}-2-[2-(2-methylpiperazin-1-yl)-2-oxoethyl]imidazo[1,2-a]pyridine-5-carboxamide] |
| > 5.70 | CC(C)(CO)NC(=O)c1cn2c(NC(=O)CC34CC5CC(CC(C5)C3)C4)cccc2n1 [Compound 437, 5-[(adamantan-1-ylacetyl)amino]-N-(2-hydroxy-1,1-dimethylethyl)imidazo [1,2-a]pyridine-2-carboxamide] |
| > 5.70 | CC(C)[C@@H]1CN(C(=O)Cc2cn3c(C(=O)NC[C@@H]4CC[C@@H]5C[C@H]4C5(C)C)cccc3n2)CCN1 [Compound 571, N-{[(1R,2R,5R)-6,6-dimethylbicyclo[3.1.1]hept-2-yl]methyl}-2-{2-[(3R)-3-isopropylpiperazin-1-yl]-2-oxoethyl}imidazo[1,2-a]pyridine-5-carboxamide] |
| > 5.70 | N#CCc1cn2c(C(=O)NCC34CC5CC(CC(C5)C3)C4)cccc2n1 [Compound 598, N-(adamantan-1-ylmethyl)-2-(cyanomethyl)imidazo [1,2-a]pyridine-5-carboxamide] |

Same assay, conditions: 50% decrease in the fluorescence response of cells exposed to 80 μM of 2′(3′)-O-(4-benzoyl-benzoyl)adenosine 5′-triphosphate; Example 4A; read-out: IC50

| pIC50 | SMILES |
| --- | --- |
| > 5.70 | CC(C)CC(CNC(=O)c1cccc2nc(CC(=O)N3CCSCC3)cn12)c1ccc(Cl)cc1 (stereo not drawn) [Compound 798, N-[2-(4-chlorophenyl)-4-methylpentyl]-2-(2-oxo-2-thiomorpholin-4-ylethyl)imidazo[1,2-a] pyridine-5-carboxamide] |
| > 5.70 | CC(C)CC(CNC(=O)c1cccc2nc(CN3CC[C@@H](NC(=O)OC(C)(C)C)C3)cn12)c1ccc(Cl)cc1 (stereo partly drawn) [Compound 766, tert-butyl{1-[(5-{[2-(4-chlorophenyl)-4-methylpentyl]carbamoyl}imidazo[1,2-a]pyridin-2-yl)methyl]pyrrolidin-3-yl}carbamate] |
| > 5.70 | CCc1ccc(CN(C)C(=O)c2cn3c(C(=O)NCC45CC6CC(CC(C6)C4)C5)cccc3n2)nc1 [Compound 713, 5-N-(adamantan-1-ylmethyl)-2-N-[(5-ethylpyridin-2-yl)methyl]-2-N-methylimidazo[1,2-a]pyridine-2,5-dicarboxamide] |
| > 5.70 | CC(C(=O)N1CC[C@@H](N)C1)c1cn2c(C(=O)NCC34CC5CC(CC(C5)C3)C4)cccc2n1 (stereo partly drawn) [Compound 752, N-(adamantan-1-ylmethyl)-2-[2-(3-aminopyrrolidin-1-yl)-1-methyl-2-oxoethyl]imidazo [1,2-a]pyridine-5-carboxamide] |
| > 5.70 | CC(C)(O)C1CCCCN1C(=O)c1cn2c(C(=O)NCC34CC5CC(CC(C5)C3)C4)cccc2n1 (stereo not drawn) [Compound 702, N-(adamantan-1-ylmethyl)-2-{[2-(1-hydroxy-1-methylethyl)piperidin-1-yl]carbonyl}imidazo[1,2-a]pyridine-5-carboxamide] |

Same assay, conditions: 50% decrease in the fluorescence response of cells exposed to 80 μM of 2′(3′)-O-(4-benzoyl-benzoyl)adenosine 5′-triphosphate; determined as in Example 4A; read-out: IC50

| pIC50 | SMILES |
| --- | --- |
| > 5.70 | CC(C)CC(CNC(=O)c1cccc2nc(C(Cc3ccc(Cl)cc3)C(=O)O)cn12)c1ccc(Cl)cc1 (stereo not drawn) [Compound 940, 3-(4-chlorophenyl)-2-(5-{[2-(4-chlorophenyl)-4-methylpentyl]carbamoyl}imidazo[1,2-a]pyridin-2-yl) propanoic acid] |
| > 5.70 | CCOC(=O)C(Cc1cccc(OC)c1)c1cn2c(C(=O)NCC34CC5CC(CC(C5)C3)C4)cccc2n1 (stereo not drawn) [Compound 842, ethyl 2-{5-[(adamantan-1-ylmethyl)carbamoyl]imidazo[1,2-a]pyridin-2-yl}-3-(3-methoxyphenyl) propanoate] |
| > 5.70 | CC(C)CC(CNC(=O)c1cccc2nc(CC(=O)N3CCC[C@@H](NC(=O)OC(C)(C)C)C3)cn12)c1ccc(Cl)cc1 (stereo partly drawn) [Compound 928, tert-butyl {(3R)-1-[(5-{[2-(4-chlorophenyl)-4-methylpentyl]carbamoyl}imidazo[1,2-a]pyridin-2-yl)acetyl]piperidin-3-yl}carbamate] |
| > 5.70 | CC(C)CC(CNC(=O)c1cccc2nc(CC(Cc3ccccc3)C(=O)O)cn12)c1ccc(Cl)cc1 (stereo not drawn) [Compound 1007, 2-benzyl-3-(5-{[2-(4-chlorophenyl)-4-methylpentyl]carbamoyl}imidazo[1,2-a]pyridin-2-yl) propanoic acid] |
| > 5.70 | CC(C)(C)CCNC(=O)Cc1cn2c(C(=O)NCC3(c4ccc(Cl)cc4)CCCCC3)cccc2n1 [Compound 871, N-{[1-(4-chlorophenyl)cyclohexyl]methyl}-2-{2-[(3,3-dimethylbutyl)amino]-2-oxoethyl} imidazo[1,2-a] pyridine-5-carboxamide] |
| > 5.70 | CC(C)(C)OC(=O)N1CC[C@@H](NC(=O)Cc2cn3c(C(=O)NCC4(c5ccc(Cl)cc5)CCCCC4)cccc3n2)C1 [Compound 968, tert-butyl (3R)-3-({[5-({[1-(4-chlorophenyl)cyclohexyl]methyl}carbamoyl)imidazo[1,2-a]pyridin-2-yl]acetyl}amino) pyrrolidine-1-carboxylate] |

Same assay, conditions: SH-SY5Y cells; 50% decrease in fluorescence response to 80 μM BzATP; read-out: IC50

| pIC50 | SMILES |
| --- | --- |
| > 5.70 | NC1CCN(Cc2cn3c(C(=O)NCC45CC6CC(CC(C6)C4)C5)cccc3n2)CC1 [Compound 120, N-(adamantan-1-ylmethyl)-2-[(4-aminopiperidin-1-yl)methyl]imidazo[1,2-a]pyridine-5-carboxamide] |
| > 5.70 | O=C(NCC12CC3CC(CC(C3)C1)C2)c1cccc2nccn12 [Compound 1, N-(adamantan-1-ylmethyl)imidazo[1,2-a]pyridine-5-carboxamide] |
| > 5.70 | CC(O)CNC(=O)Cc1cn2c(C(=O)NCC34CC5CC(CC(C5)C3)C4)cccc2n1 (stereo not drawn) [Compound 33, N-(adamantan-1-ylmethyl)-2-{2-[(2-hydroxypropyl)amino]-2-oxoethyl}imidazo[1,2-a]pyridine-5-carboxamide] |

| SMILES | pIC50 |
| --- | --- |
| O=C(NCC12CC3CC(CC(C3)C1)C2)c1cccc2nc(CC(=O)N3CCN(C4CCC4)CC3)cn12 [Compound 179, N-(adamantan-1-ylmethyl)-2-[2-(4-cyclobutylpiperazin-1-yl)-2-oxoethyl]imidazo[1,2-a]pyridine-5-carboxamide] | > 5.70 |

Same assay, conditions: fluorescence response of cells exposed to 80 μM 2′(3′)-O-(4-benzoyl-benzoyl)adenosine 5′-triphosphate; Example 4A; read-out: IC50

| pIC50 | SMILES |
| --- | --- |
| > 5.70 | CC(C)CNC(=O)Cc1cn2c(C(=O)NCC(CC(C)C)c3ccccc3)cccc2n1 (stereo not drawn) [Compound 223, 2-[2-(isobutylamino)-2-oxoethyl]-N-(4-methyl-2-phenylpentyl) imidazo [1,2-a]pyridine-5-carboxamide] |
| > 5.70 | COC1CCN(C(=O)c2cn3c(NC(=O)CC45CC6CC(CC(C6)C4)C5)cccc3n2)CC1 [Compound 385, 2-adamantan-1-yl-N-{2-[(4-methoxypiperidin-1-yl)carbonyl]imidazo[1,2-a]pyridin-5-yl}acetamide] |
| > 5.70 | CC(C)CC(CNC(=O)c1cccc2nc(CC(=O)N3CCCC(C(F)(F)F)C3)cn12)c1ccccc1 (stereo not drawn) [Compound 238, N-(4-methyl-2-phenylpentyl)-2-{2-oxo-2-[3-(trifluoromethyl)piperidin-1-yl]ethyl}imidazo [1,2-a]pyridine-5-carboxamide] |
| > 5.70 | COC[C@@H]1CCCN1C(=O)c1cn2c(C(=O)NCC(CC(C)C)c3ccccc3)cccc2n1 (stereo partly drawn) [Compound 257, 2-{[(2S)-2-(methoxymethyl)pyrrolidin-1-yl]carbonyl)-N-(4-methyl-2-phenylpentyl)imidazo [1,2-a]pyridine-5-carboxamide] |

Source: patent US8431593B2, “Heteroaryl amide derivatives” (H. Lundbeck A/S, priority 2006, dated 2013)
